Experimental data: patent US5494913A, “Antifungal compounds” (Schering Corporation, priority 1994, dated 1996)
Values after ≈ are worked out from the molar mass of the structure shown.

Columns and labels:
[1] = test system: C. albicans & C. tropicalis; assay: In vitro antifungal MIC in SDB (pH 5.7), C. albicans & C. tropicalis; assay type: cell-based; conditions: 8 strains; for MIC: 48/72 hr, read-out: Geometric means MICs, 48/72 hr
Description: (§1) Compounds A and B of the invention were tested in standard antifungal assays and data from these tests appear in the Table 13 just below.
(§2) In vitro activity of compounds
(§3) A and B and Albofungin against various fungi
(§4) Geometric means MICs μg/ml, 48/72 hr)
(§5) SDB means Sabourand dextrose broth, pH 5.7;

[2] = test system: various yeasts and dermatophytes; assay: Antifungal MIC against various yeasts and dermatophytes (summary statement); assay type: cell-based; conditions: read-out: MIC values
Description: as §1

In vivo LD50, iv = conditions: mpk means mg. per kg., range for compounds A and B, printed with "about"
Aspergillus = assay: In vitro antifungal MIC in SDB (pH 5.7), Aspergillus; assay type: cell-based; conditions: 3 strains; for MIC: 48/72 hr, read-out: Geometric means MICs, 48/72 hr
Description: as §1, §2, §3, §4, §5

Dermatophytes = assay: In vitro antifungal MIC in SDB (pH 5.7), dermatophytes; assay type: cell-based; conditions: 5 strains; for MIC: 48/72 hr, read-out: Geometric means MICs, 48/72 hr
Description: as §1, §2, §3, §4, §5

[3] = test system: C. albicans & C. tropicalis; assay: In vitro antifungal MIC in EMEM (pH 7.0), C. albicans & C. tropicalis; assay type: cell-based; conditions: 9 strains; for MIC: 48/72 hr, read-out: Geometric means MICs, 48/72 hr
Description: as §1, §2, §3, §4
EMEM means Eagle's minimum essential medium, pH 7.0.

Other Candida = assay: In vitro antifungal MIC in SDB (pH 5.7), other Candida; assay type: cell-based; conditions: 6 strains; for MIC: 48/72 hr, read-out: Geometric means MICs, 48/72 hr
Description: as §1, §2, §3, §4, §5

Compound | MIC [1] [mg/L] | MIC [2] [mg/L] | LD50 (In vivo LD50, iv) [mg/kg] | MIC (Aspergillus) [mg/L] | MIC (Dermatophytes) [mg/L] | MIC [3] [mg/L] | MIC (Other Candida) [mg/L] | Geometric means MICs, 48/72 hr [1] [µg/mL] | Geometric means MICs, 48/72 hr (Aspergillus) [µg/mL] | Geometric means MICs, 48/72 hr (Dermatophytes) [µg/mL] | Geometric means MICs, 48/72 hr [3] [µg/mL] | Geometric means MICs, 48/72 hr (Other Candida) [µg/mL]
CCC(C)c1cc2c(Cl)c3c(c(O)c2c(=O)n1N)-c1c(O)c2c(c4c1C(C3)OCO4)OC1C(OC)C=CC(O)C1C2=O (stereo not drawn) [Compound A] | < 0.000386 | ≤ 0.000386 | 1 to 25 | 0.0248 (≈ 0.0415 µM) | 0.00764 (≈ 0.0128 µM) | < 2.16 | < 0.00128 | – | – | – | – | –
CCC(C)c1cc2cc3c(c(O)c2c(=O)n1C)-c1c(O)c2c(c(OC)c1CC3)O[C@H]1[C@@H](C2=O)[C@@H](O)C=C[C@H]1O (stereo partly drawn) [Compound B] | 0.017 (≈ 0.0319 µM) | – | 1 to 25 | 0.794 (≈ 1.49 µM) | 0.144 (≈ 0.269 µM) | < 0.135 | 0.0312 (≈ 0.0585 µM) | – | – | – | – | –
Albofungin [reference compound] | – | – | – | – | – | – | – | < 0.00055 | 0.125 | 0.0359 | < 0.0182 | < 0.00099
